Experimental data as given in patent US20220395553A1, “CXCR4 ANTAGONIST PEPTIDES” (COHBAR, INC., priority 2019, published 2022).
Square brackets hold non-standard residues; d marks the D form. Peptide text beside a SMILES is read from it.

Key:
[1] = Cell viability, PrestoBlue assay; assay type: cell-based; details: human
Experimental: The effect of the peptides on cell viability can be assessed in cultured cells using suitable assay of viability such as the PrestoBlue® assay (Thermo Fisher Scientific, Waltham, Mass.). Peptides were initially prepared as 10 mM stock in DMSO and tested at a final concentration of 10 μM (0.1% DMSO). […] PrestoBlue Assay Reagent was purchased from Thermo Fisher Scientific. A172 human brain glioblastoma cell line was purchased from American Type Culture Collection (Manassas, Va.). A172 cells were grown in DMEM supplemented with 10% FBS with 100 IU/ml penicillin and 100 μg/ml streptomycin. Cultures were maintained at 37° C. in a humidified atmosphere of 5% CO2/95% air. A172 cells were seeded at 8,000 cells per well on 96-well plates. […] Cell viability was determined using a PrestoBlue Assay reagent […] according to the manufacturer's instructions. Absorption for each sample well on the plate was measured using a Cytation 3 plate reader at 560 nm and 590 nm (BioTek, Winooski, Vt.). Activity was calculated relative to 0.1% DMSO untreated control. Treatment with 0.1% DMSO alone was used as the cell viability activity control. The relative standard deviation of the DMSO control was <5%.

[2] = system: SH-SY5Y Neuroblastoma Cells; test: ATP levels in cells exposed to staurosporine; assay type: cell-based, human; details: peptide 10 μM plus staurosporine, 18-20 hours; <100% cytoprotective, >100% synergistic
Experimental: Peptides were initially prepared as 10 mM stock in DMSO and tested at a final concentration of 10 μM (0.1% DMSO).
[…] CellTiter-Glo® Assay kit was purchased from Promega. SH-SY5Y human neuroblastoma cell line was purchased from American Type Culture Collection (Manassas, Va.) and licensed from Memorial Sloan-Kettering Cancer Center (New York, N.Y.). SH-SY5Y cells were grown in DMEM/F12 medium supplemented with 10% FBS with 100 IU/ml penicillin and 100 μg/ml streptomycin. Cultures were maintained at 37° C. in a humidified atmosphere of 5% CO2/95% air. SH-SY5Y cells were seeded at 30,000 cells per well on 96-well plates. […] ATP levels were determined using a CellTiter-Glo Assay kit (Promega) according to the manufacturer's instructions. Luminescence for each sample well on the plate was measured using a Cytation 3 plate reader (BioTek, Winooski, Vt.). […] A value less than 100% is indicative of a cytoprotective effect, while a value greater than 100% is indicative of a synergistic effect on viability.

[3] = system: Rat H-4-II-E Cells; test: TBHP-induced reactive oxygen species (DCFDA); assay type: cell-based; details: peptide 10 μM 18-20 hours, then TBHP 100 μM 1 hour; relative to TBHP control
Experimental: The protective or synergistic effect of the peptides on cellular levels of reactive oxygen species (ROS) induced by oxidative stress can be assessed using an assay of ROS in cultured cells exposed to a suitable oxidative stress. Peptides were initially prepared as 10 mM stock in DMSO and tested at a final concentration of 10 μM (0.1% DMSO). […] TBHP was used at final concentration of […]. Sulforaphane was used at a final concentration of 10 uM as a protective antioxidant control against TBHP induced ROS production. DCFDA Cellular ROS Detection Assay kit was purchased from […]. H-4-II-E rat liver hepatoma cell line was purchased from American Type Culture Collection (Manassas, Va.). H-4-II-E cells were grown in DMEM supplemented with 10% FBS with 100 IU/ml penicillin and 100 μg/ml streptomycin. Cultures were maintained at 37° C. in a humidified atmosphere of 5% CO2/95% air. H-4-II-E cells were seeded at 15,000-20,000 cells per well on 96-well plates. The next day cells were incubated with test peptides at 10 μM in 0.1% DMSO or sulforaphane at 10 uM and maintained at 37° C. in a humidified atmosphere of 5% CO2/95% air for 18-20 hours. After 18-20 hours of incubation the cells were loaded with DCFDA for 45 min. TBHP at 100 μM was then added to the appropriate wells for 1 hour. ROS activity was determined using a DCFDA Cellular ROS Detection Assay kit (Abcam) according to the manufacturer's instructions. Fluorescence in each sample well on the plate was measured using a Cytation 3 plate reader at Ex/Em=485/535 nm (BioTek, Winooski, Vt.). Activity was calculated relative to TBHP control. […] Activity was calculated relative to THBP treated control.

[4] = system: U937 cells; test: CXCL12 mediated cell migration, U937 cells; assay type: cell-based, human; details: peptides at 10 μM (also stated 1 μM), 100 nM CXCL12, 4 hours
Experimental: Peptides were initially prepared as 1 mM stock in H2O and tested at a final concentration of 1 μM. […] U937 cells were resuspended in serum free media containing 0.5% bovine serum albumin (RPMI+GlutaMax (Gibco/Thermo Fisher Scientific, Gaithersburg, Md.)) at density of 5×10^6 cells/ml. […] Following the 4 hour incubation period the filter inserts were carefully removed and the migration of cells across the filter into the bottom chamber (receiver wells) was determined by measuring ATP levels using Cell TiterGlo 2.0, according to manufacturer's instructions (Promega, Madison, Wis.); luminescence measured using a Cytation 3 plate reader (BioTek, Winooski, Vt.).

[5] = target: T1, human CXCR4 (Homo sapiens, UniProt P61073); test: IC50 for CXCR4/CXCL12 ligand binding, HTRF format (Example 24); set-up: host or cells: HEK293 (Tag-lite CXCR4 cells, frozen aliquots, transient expression)
T1 sequence (P61073 whole entry): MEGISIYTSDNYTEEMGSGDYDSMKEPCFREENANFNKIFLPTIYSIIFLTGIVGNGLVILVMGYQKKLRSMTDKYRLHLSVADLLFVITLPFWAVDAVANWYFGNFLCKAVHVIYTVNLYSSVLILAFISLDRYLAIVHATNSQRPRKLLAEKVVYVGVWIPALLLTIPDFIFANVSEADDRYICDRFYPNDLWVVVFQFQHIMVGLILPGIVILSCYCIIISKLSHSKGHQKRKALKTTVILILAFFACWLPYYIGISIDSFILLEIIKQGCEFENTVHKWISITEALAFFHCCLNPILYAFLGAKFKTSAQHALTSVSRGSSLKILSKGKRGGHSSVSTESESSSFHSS
Experimental: Peptides were initially prepared as 1 mM stock in H2O. […] Following the manufacture's protocol, a frozen aliquot of Tag-lite CXCR4 cells was thawed and immediately seeded onto 384-well plates in TLB. […] The plates were covered in aluminum foil and left at room temperature for 3 hours. Following the 3 hour incubation period, the plates were removed from the incubator and fluorescence measured using a Cytation 1 plate reader using a HTRF filter cube ([…]; BioTek; Winooski, Vt.).

[6] = target: T1, human CXCR4; test: IC50 for inhibition of β-Arrestin recruitment (Example 19); assay type: cell-based; set-up: host or cells: C2C12 (mouse myoblast) CXCR4 β-Arrestin PathHunter cell line
From the text: C2C12 CXCR4 β-Arrestin cells were seed onto 384-well plates in standard medium.

IC50 [5] [µM]	IC50 [6] [µM]	Compound	viability at 10 μM [1] [%]	Percent of ATP Reduction Induced by Control [2] [%]	TBHP-Induced ROS, Percent of Control [3] [%]	Percent Inhibition of CXCL12 Mediated Migration [4] [%]
0.006		CC(C)C[C@H](NC(=O)[C@H](CO)NC(=O)[C@H](CO)NC(=O)[C@H](CCCNC(=N)N)NC(=O)[C@@H](NC(=O)[C@H](CO)NC(=O)[C@H](Cc1c[nH]cn1)NC(=O)[C@H](Cc1c[nH]cn1)NC(=O)[C@H](Cc1ccc(O)cc1)NC(=O)[C@H](CCCNC(=N)N)NC(=O)[C@H](CCC(=O)O)NC(=O)[C@@H](N)CC(C)C)C(C)C)C(=O)N[C@@H](CCCNC(=N)N)C(=O)N1CCC[C@H]1C(=O)N[C@@H](Cc1ccc(O)cc1)C(=O)N[C@H](C(=O)N[C@@H](CCCCN)C(=O)O)[C@@H](C)O [compound 4] (H-LERYHHSVRSSLRPYTK-OH; N-terminus and C-terminus assumed)	96	77.1	95.8	98
		CSCC[C@H](N)C(=O)N[C@@H](CC(C)C)C(=O)N[C@@H](CCCNC(=N)N)C(=O)N[C@@H](CCCNC(=N)N)C(=O)N[C@@H](Cc1ccc(O)cc1)C(=O)N[C@@H](Cc1c[nH]cn1)C(=O)N[C@@H](Cc1c[nH]cn1)C(=O)N[C@@H](CO)C(=O)N[C@H](C(=O)N[C@@H](CCCNC(=N)N)C(=O)N[C@@H](CO)C(=O)N[C@@H](CO)C(=O)N[C@@H](CC(C)C)C(=O)N[C@@H](CCCNC(=N)N)C(=O)N1CCC[C@H]1C(=O)N[C@@H](Cc1ccc(O)cc1)C(=O)N[C@H](C(=O)N[C@@H](CCCCN)C(=O)O)[C@@H](C)O)C(C)C [compound 2] (H-MLRRYHHSVRSSLRPYTK-OH; N-terminus and C-terminus assumed)	96.4	84.5	90.9	58
0.033	0.121	CC(C)C[C@H](NC(=O)[C@H](CO)NC(=O)[C@H](CO)NC(=O)[C@H](CCCNC(=N)N)NC(=O)[C@@H](C)NC(=O)[C@H](CO)NC(=O)[C@H](Cc1c[nH]cn1)NC(=O)[C@H](Cc1c[nH]cn1)NC(=O)[C@H](Cc1ccc(O)cc1)NC(=O)[C@H](CCCNC(=N)N)NC(=O)[C@H](CCC(=O)O)NC(=O)[C@@H](N)CC(C)C)C(=O)N[C@@H](CCCNC(=N)N)C(=O)N1CCC[C@H]1C(=O)N[C@@H](Cc1ccc(O)cc1)C(=O)N[C@H](C(=O)O)[C@@H](C)O [compound 5] (H-LERYHHS[dA]RSSLRPYT-OH; N-terminus and C-terminus assumed)	98.8	80.0	99.2	86
		CC(C)C[C@H](NC(=O)[C@H](CO)NC(=O)[C@H](CO)NC(=O)[C@H](CCCNC(=N)N)NC(=O)[C@@H](NC(=O)[C@H](CO)NC(=O)[C@H](Cc1c[nH]cn1)NC(=O)[C@H](Cc1c[nH]cn1)NC(=O)[C@H](Cc1ccc(O)cc1)NC(=O)[C@H](CCCNC(=N)N)NC(=O)[C@H](CCCNC(=N)N)NC(=O)[C@@H](N)CC(C)C)C(C)C)C(=O)N[C@@H](CCCNC(=N)N)C(=O)N1CCC[C@H]1C(=O)N[C@@H](Cc1ccc(O)cc1)C(=O)N[C@H](C(=O)N[C@@H](CCCCN)C(=O)O)[C@@H](C)O [compound 3] (H-LRRYHHSVRSSLRPYTK-OH; N-terminus and C-terminus assumed)	97.3	84.9	95.5	101
